Data on 15 compounds can be found in PubChem BioAssay (NCI).

Among the test systems are UO-31 renal; A498 renal; SF-539 CNS; HOP-92 NSCLC; SW-620 colon; COLO 205 colon; HT29 colon; EKVX NSCLC; PC-3 prostate; HS 578T breast.
What all share (test): NCI tumour cell line growth inhibition, 48 h

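All cell lines were grown in 96-well plates and treated with compound for 48 hours. GI50: concentration for 50% inhibition of growth. TGI denotes the concentration required for complete inhibition of growth.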

As for `COc1ccc(N2C(=O)C(N3C(=O)C=CC3=O)C2C=O)cc1` (stereo not given), the TGI with UO-31 renal, with A498 renal, with SF-539 CNS, with HOP-92 NSCLC, in the experiment with SW-620 colon and with COLO 205 colon was greater than 100 µM each time. Besides, the TGI in the experiment on HT29 colon and in the experiment on EKVX NSCLC was greater than 100 µM throughout.
Consider `c1ccc(CNc2ncnc3n[nH]nc23)cc1`, for which the TGI in the experiment on UO-31 renal, with A498 renal, with PC-3 prostate, in the experiment on SF-539 CNS, with HOP-92 NSCLC and in the experiment with SW-620 colon was greater than 100 µM each time. Also, the TGI in the experiment on COLO 205 colon, with HT29 colon and in the experiment with EKVX NSCLC was greater than 100 µM in each case.
For the compound `COc1cccc2c1[C@]1(O)C(O)CCCC21` (stereo not given in full), the TGI in the experiment on UO-31 renal, with A498 renal, with SF-539 CNS, in the experiment on SW-620 colon, in the experiment on COLO 205 colon and in the experiment on HT29 colon was greater than 100 µM in each case.
Consider `c1cc2ccc1CNCCN1CCNCc3ccc(cc3)Oc3ccc(cc3)CNCCN(CCNCc3ccc(cc3)O2)CCNCc2ccc(cc2)Oc2ccc(cc2)CNCC1`, for which the GI50 was 11.3 µM in the experiment with UO-31 renal; 0.358 µM with PC-3 prostate; 1.44 µM in the experiment with SF-539 CNS; 0.0202 µM in the experiment with HOP-92 NSCLC; 1.11 µM with SW-620 colon. Moreover, the TGI in the experiment with UO-31 renal was 26.4 µM; with PC-3 prostate it was 1.24 µM; in the experiment on SF-539 CNS, 2.76 µM; in the experiment with HOP-92 NSCLC, 0.0501 µM; in the experiment with SW-620 colon, 2.63 µM.
With `CCC1CCC2c3c([nH]c4ccccc34)C3C(=O)N(c4ccc(OC)cc4)C(=O)C3C2C1` (stereo not given), the TGI in the experiment with UO-31 renal was greater than 100 µM; in the experiment on HS 578T breast, 66.8 µM; in the experiment with PC-3 prostate, greater than 100 µM; in the experiment with SF-539 CNS, greater than 100 µM; with SW-620 colon, 82.4 µM; in the experiment on COLO 205 colon, greater than 100 µM. The TGI in the experiment with HT29 colon and in the experiment with EKVX NSCLC was greater than 100 µM in each case.
Regarding `CCOC(=O)C[n+]1ccc2c([nH]c3cc(OC)ccc32)c1C`, the TGI with UO-31 renal, in the experiment with A498 renal, in the experiment on SF-539 CNS, in the experiment with HOP-92 NSCLC, in the experiment on SW-620 colon and in the experiment with COLO 205 colon was greater than 100 µM in each case. Also, the TGI with HT29 colon and with EKVX NSCLC was greater than 100 µM each time.
On to `Oc1ccc2ccccc2c1OCc1nnc(CCCCCCCCc2nnc(COc3c(O)ccc4ccccc34)o2)o1`, for which the TGI with UO-31 renal, with A498 renal, in the experiment on PC-3 prostate, with HOP-92 NSCLC, in the experiment on SW-620 colon and in the experiment with COLO 205 colon was greater than 100 µM throughout. Moreover, the TGI with HT29 colon and with EKVX NSCLC was greater than 100 µM in each case.
Turning to `CC1OC=CC(=O)C1O` (stereo not given), the TGI in the experiment with UO-31 renal, in the experiment on SF-539 CNS, in the experiment on HOP-92 NSCLC, in the experiment with SW-620 colon, in the experiment on HT29 colon and in the experiment on EKVX NSCLC was greater than 100 µM throughout.
As to `COc1cc(S(=O)(=O)N/N=C/c2cc(Br)c(O)c(OC)c2)c(OC)cc1NC(C)=O`, the TGI was greater than 100 µM in the experiment on UO-31 renal; greater than 100 µM with A498 renal; greater than 100 µM in the experiment with PC-3 prostate; 41.8 µM in the experiment on SF-539 CNS; greater than 100 µM in the experiment on HOP-92 NSCLC; greater than 100 µM in the experiment with SW-620 colon. Also, the TGI was 51.3 µM with COLO 205 colon, greater than 100 µM with HT29 colon and greater than 100 µM in the experiment with EKVX NSCLC.
Take `c1ccc(-c2[nH]c(-c3ccccc3)c(-c3cnccn3)c2-c2cnccn2)cc1`: the TGI in the experiment with UO-31 renal, with A498 renal, in the experiment on SF-539 CNS, with HOP-92 NSCLC, in the experiment with SW-620 colon and in the experiment on COLO 205 colon was greater than 100 µM each time. Moreover, the TGI in the experiment on HT29 colon and in the experiment on EKVX NSCLC was greater than 100 µM throughout.
Turning to `COc1ccc(NS(=O)c2cccc(C)c2)cc1` (stereo not given), the TGI in the experiment with UO-31 renal was greater than 100 µM; with HS 578T breast, greater than 100 µM; in the experiment with PC-3 prostate, greater than 100 µM; in the experiment on SF-539 CNS, 66.7 µM; in the experiment on SW-620 colon it was greater than 100 µM; in the experiment with COLO 205 colon, greater than 100 µM. The TGI in the experiment on HT29 colon and in the experiment with EKVX NSCLC was greater than 100 µM throughout.
Take `O=C1OC2C=CC1C1(CCOC1=O)C2` (stereo not given): the TGI with UO-31 renal, in the experiment on A498 renal, in the experiment on SF-539 CNS, with HOP-92 NSCLC, in the experiment with SW-620 colon and with COLO 205 colon was greater than 100 µM throughout. For the same compound, in the experiment with EKVX NSCLC, the TGI was greater than 100 µM.
Turning to `CCOC(=O)c1cn(C)nc1N/C(C)=C\C(=O)c1ccccc1`, the TGI in the experiment on UO-31 renal, in the experiment with HS 578T breast, in the experiment on PC-3 prostate, in the experiment on SF-539 CNS, with HOP-92 NSCLC and in the experiment on SW-620 colon was greater than 100 µM in each case. For the same compound, the TGI in the experiment on COLO 205 colon, with HT29 colon and in the experiment with EKVX NSCLC was greater than 100 µM throughout.
As to `O=S(=O)(/N=C1/SC(=Nc2ccccc2)N(c2ccccc2)/C1=N/S(=O)(=O)c1ccccc1)c1ccccc1`, the TGI in the experiment with UO-31 renal is 39.9 µM; with HS 578T breast it was greater than 100 µM; in the experiment with A498 renal it was 37.6 µM; in the experiment with HOP-92 NSCLC, 62.9 µM; with SW-620 colon, 44.2 µM; in the experiment with COLO 205 colon, 64.1 µM. In addition, the TGI was determined as 48.1 µM in the experiment with HT29 colon and 76.8 µM with EKVX NSCLC.
Turning to `C=C1C(=O)O[C@H]2C/C(C=O)=C\[C@H]3O[C@H]3/C(COC(=O)C(C)C)=C/CC12` (stereo not given in full), the TGI in the experiment on UO-31 renal worked out at 18 µM; in the experiment on HS 578T breast, 22 µM; in the experiment with PC-3 prostate, 8.59 µM; with SF-539 CNS, 47.3 µM; with SW-620 colon it was 6.87 µM; in the experiment with COLO 205 colon, 5.91 µM. The TGI with HT29 colon came to 12.8 µM; in the experiment with EKVX NSCLC, 29.8 µM.
